Where “and” joins values, the source holds several entries; their conditions need not be identical. Identical values can stand only once.
Experiments:
[1] = test system: MRC-5 (human embryonic lung fibroblast) cells; assay: Toxicity testing: neutral red uptake (NRU) assay, inherent (dark) toxicity; conditions: 0.01% (v/v), positive control
Experimental: Control cells were incubated in standard cell culture medium.

[2] = test system: human glioblastoma cells (U87MG); assay: PDT efficacy: cell viability (NRU assay) following irradiation; format: cell-based
Experimental: (§1) To assess the effect of AP2-18 (8) on PpIX-induced PDT efficacy, the same three cell types were exposed to equimolar concentrations of ALA, ALA and CP94 (3), MAL, MAL and CP94 (3), and AP2-18 (8) (as described previously) and incubated in the dark for 4 hours. The level of PpIX accumulation was then quantified as before, prior to irradiation with red light (37 J/cm^2; 635±2 nm; Aktilite, Galderma, UK).

[3] = test system: human epithelial squamous cell carcinoma cells (A431); assay: as above; format: cell-based
Experimental: as §1

[4] = test system: human dermal fibroblasts (84BR); assay: as above
Experimental: as §1

[5] = test system: human epithelial squamous cell carcinoma cells (A431); assay: Cell viability (NRU assay) after irradiation with varying incubation periods (2, 3 or 4 hours); format: cell-based; conditions: for cell viability: A431 cells, then red light 37 J/cm^2, NRU assay, individual replicates
Experimental: Neutral red is an inert dye actively taken up and stored by viable (living) cells, an action which is unable to be performed by non-viable cells, therefore the level of neutral red taken up is directly proportional to the number of viable cells present following a given exposure. Following uptake of the dye, cells are lysed and the level of neutral red quantified using a plate reader.
After the relevant incubation period, the cells were irradiated with red light (37 J/cm^2; 635±2 nm; Aktilite, Galderma, UK).

[6] = test system: human epithelial squamous cell carcinoma cells (A431); assay: PpIX fluorescence after varying incubation periods (2, 3 or 4 hours); conditions: for PpIX fluorescence: A431 cells, individual replicates
Experimental: (§2) Briefly, cells were seeded at 2×10^4 cells per well in a 96 well plate and left to adhere overnight. Test solutions were prepared on the day of the assay and applied to the cells. The level of PpIX produced was monitored using a multi-well fluorescent plate reader with a 400 (±30) nm excitation filter and a 645 (±40) nm emission filter, with the level of fluorescence produced being directly proportional to the level of PpIX present. Readings were taken hourly for 6 hours and were conducted under low light conditions to reduce photobleaching of PpIX.

[7] = test system: human epithelial squamous cell carcinoma cells (A431); assay: PpIX fluorescence accumulation; conditions: for PpIX accumulation: A431 cells, hydrochloride;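 for all read-outs here: PpIX fluorescence accumulating inside A431 cells, read under dim light to limit photobleaching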
Experimental: as §2
(§3) These were tested alongside equimolar concentrations of ALA, ALA and CP94 (3), MAL, and MAL and CP94 (3), with all test compounds being investigated in human dermal fibroblasts (84BR; FIGS. 2A and 2B), human epithelial squamous cell carcinoma cells (A431; FIGS. 3A and 3B) and human glioblastoma cells (U87MG; FIGS. 4A and 4B).

[8] = test system: human dermal fibroblasts (84BR); assay: PpIX fluorescence accumulation; conditions: 250-1000 μM, up to 6 hours
Experimental: as §2, §3

[9] = test system: human glioblastoma cells (U87MG); assay: PpIX fluorescence accumulation; format: cell-based; conditions: for PpIX accumulation (fluorescence): hydrochloride
Experimental: as §2, §3

[10] = 500 μM (combinations: 500 μM each), 4 h dark incubation, red light 37 J/cm^2, normalised to blank control

OO [H2O2, hydrogen peroxide]
cell viability by NRU [1]: significant reduction in cell viability

COC(=O)CCC(=O)CN [MAL, methyl aminolevulinate]
cell viability following irradiation [2, 10]: 83.8% and 72.46% and 73.96% and 78.24% and 80.7% | viability at 500 µM ([2]; Homo sapiens, U-87 MG, light or radiation study, 4 h, 500 μM (combinations: 500 μM each), 4 h dark incubation, red light 37 J/cm^2, normalised to blank control): 81.6% | cell viability following irradiation ([3]; 250 μM (combinations: 250 μM each), 4 h dark incubation, red light 37 J/cm^2, normalised to blank control): 90.46% and 107.8629% and 109.4385% and 93.64% and 106.3667% | cell viability following irradiation [3, 10]: 90.24% and 110.2301% and 98.69% and 113.2846% and 104.0869% and 74.42% | viability at 250 µM ([3]; Homo sapiens, A-431, light or radiation study, 4 h, 250 μM (combinations: 250 μM each), 4 h dark incubation, red light 37 J/cm^2, normalised to blank control): 110% | viability at 500 µM ([4]; Homo sapiens, Fibroblast, light or radiation study, 4 h, read-out: cell viability following irradiation, 84BR, 500 μM, 4 hours in the dark, red light 37 J/cm^2, NRU, normalised against blank control cells): 80.9% | viability at 1000 µM ([4]; Homo sapiens, Fibroblast, light or radiation study, 4 h, read-out: cell viability following irradiation, 84BR, 1000 μM, 4 hours in the dark, red light 37 J/cm^2, NRU, normalised against blank control cells): 97.3% | cell viability ([5]; 250 μM (each drug), incubation time 2 hours, 250 µM): 78.63 and 100.9237 and 89.58 and 117.6227 and 107.2209 and 106.7755 and 45.7309 and 63.26 and 57.86 | cell viability ([5]; 250 μM (each drug), incubation time 3 hours, 250 µM): 92.9 and 73.67 and 65.45 and 62.6519 and 51.74 and 54.37 and 33.36 and 40.45 and 63.31 and 38.2134 and 54.71 and 47.85 | cell viability ([5]; 250 μM (each drug), incubation time 4 hours, 250 µM): 90.46 and 107.8629 and 109.4385 and 93.64 and 106.3667 and 111.1665 and 115.1445 and 124.4547 | cell viability ([5]; 500 μM (each drug), incubation time 2 hours, 500 µM): 103.8357 and 110.62 and 117.5455 and 82.92 and 108.8432 and 82.89 and 99.5 and 114.8824 and 75.71 | cell viability ([5]; 500 μM (each drug), incubation time 3 hours, 500 µM): 40.78 and 47.71 and 49.73 and 71.71 and 76.89 and 81.87 and 74.41 and 55.25 and 104.0986 and 49.38 and 75.04 and 67.4 | cell viability ([5]; 500 μM (each drug), incubation time 4 hours, 500 µM): 90.24 and 110.2301 and 98.69 and 113.2846 and 104.0869 and 74.42 and 104.4856 and 97.36 and 135.6405 | cell viability ([5]; 1000 μM (each drug), incubation time 2 hours, 1000 µM): 113.344 and 113.9162 and 113.1911 and 108.366 and 113.6783 and 85.84 and 45.89 and 39.15 and 53.82 | cell viability ([5]; 1000 μM (each drug), incubation time 3 hours, 1000 µM): 93.27 and 84.83 and 88.71 and 39.35 and 38.5 and 43.01 and 59.91 and 53.88 and 52.9157 and 75.55 and 92.95 and 90.52 | cell viability ([5]; 1000 μM (each drug), incubation time 4 hours, 1000 µM): 91.78 and 85.804 and 110.3323 and 138.7061 and 132.5587 and 155.8802 and 165.2883 and 91.73 and 106.1163 | PpIX fluorescence ([6]; 500 μM (each drug), incubation time 2 hours): −7.33 and 4.67 and −5.67 (2×) and −7.67 and 8.67 and −2.33 and 1.67 and 21 | PpIX fluorescence ([6]; 500 μM (each drug), incubation time 3 hours): −3.67 and −6.67 and 5.33 and −2.67 (2×) and 0.33 and 7.67 and −2.33 and 1.67 | PpIX fluorescence ([6]; 500 μM (each drug), incubation time 4 hours): −4.33 and −7.33 and 3.67 (2×) and 0.67 and 1.67 and 9 and 0 and 2 | PpIX fluorescence ([6]; 1000 μM (each drug), incubation time 2 hours): 28 and 21 and 9.67 and 10.67 and 11.67 and −3.667 and 0.3333 and −8.333 and 51 | PpIX fluorescence ([6]; 1000 μM (each drug), incubation time 3 hours): 45 and 50 and 42 and 22.67 and 25.67 and 20.67 and −3.333 and 0.6667 and −10.3333 | PpIX fluorescence ([6]; 1000 μM (each drug), incubation time 4 hours): 70 and 74 and 64 and 34.33 and 39.33 and 30.33 and −2 and 4 and −8.333

CCc1c(O)c(O)cc[n+]1CCOC(=O)CCC(=O)CN.Cl.[Cl-] [AP2-18, 1-(2-(5-amino-4-oxopentanoyloxy)ethyl)-2-ethyl-3,4-dihydroxypyridinium chloride hydrochloride]
PpIX-induced PDT cell kill [2]: highly effective PpIX-induced PDT cell kill | PpIX accumulation vs ALA or MAL alone or with CP94 ([7]; A431, 250-1000 μM, up to 6 hours): significantly increase PpIX accumulation | PpIX accumulation ([7]; 500 μM (each component), exposure time 1 hour): 21.33 and 33.67 and 22.67 and 28.67 and 33 and 32 and 29 | PpIX accumulation ([7]; 1000 μM (each component), exposure time 1 hour): 41.33 and 38.33 and 49.33 and 33.67 and 34.67 and 36.67 and 49 and 51 | PpIX accumulation ([7]; 1000 μM (each component), exposure time 2 hours): 58.33 and 69.33 and 58.67 and 63.67 and 78.67 and 97.67 and 93.67 | reduction in cell viability following PDT [3]: significant reductions in cell viability | reducing cell viability following PDT vs other treatment parameters ([4]; 84BR, lowest concentration employed (250 μM)): significantly better | PpIX accumulation vs ALA or MAL alone or with CP94 [8]: significantly increase PpIX accumulation | PpIX accumulation (fluorescence) ([9]; 250 μM (combinations: 250 μM each), exposure time 2 hours): 114.3 and 128.3 and 146.3 and 125.67 and 126.67 and 129.67 and 130.67 and 128.67 | PpIX accumulation (fluorescence) ([9]; 250 μM (combinations: 250 μM each), exposure time 3 hours): 172 and 199 and 221 and 195 and 196 and 189.33 and 195.33 and 184.33 | PpIX accumulation (fluorescence) ([9]; 500 μM (combinations: 500 μM each), exposure time 3 hours): 312 and 308 and 267 and 279 and 251.33 and 271.33 and 273.33 | PpIX accumulation (fluorescence) ([9]; 1000 μM (combinations: 1000 μM each), exposure time 4 hours): 519 and 469 and 361 and 447 and 468 and 478 and 456 and 499 | PpIX accumulation vs ALA or MAL alone or with CP94 ([9]; 250-1000 μM, up to 6 hours): significantly increase PpIX accumulation | cell kill on irradiation compared with ALA or MAL ([5]; A431, incubation 2, 3 or 4 hours, greatest cytotoxicity at 4 hours): statistically significant increases in cell kill | cell viability ([5]; 250 μM (each drug), incubation time 2 hours, hydrochloride, 250 µM): 97.7 and 86.79 and 91.73 and 133.2414 and 62.66 and 106.5847 and 64.29 and 96.8 and 131.2186 | cell viability ([5]; 250 μM (each drug), incubation time 3 hours, hydrochloride, 250 µM): 86.93 and 101.2448 and 79.7 and 62.46 and 60.17 and 62.3481 and 33.56 and 37.89 and 49.02 and 32.65 and 47.7341 and 52.75 | cell viability ([5]; 250 μM (each drug), incubation time 4 hours, hydrochloride, 250 µM): 7.088 and 6.582 and 5.929 and 7.34 and 6.99 and 6.52 and 32.03 and 32.79 and 31.11 | cell viability ([5]; 500 μM (each drug), incubation time 2 hours, hydrochloride, 500 µM): 12.86 and 12.74 and 16.04 and 53.68 and 42.01 and 55.47 and 60.64 and 70.31 and 124.24 | cell viability ([5]; 500 μM (each drug), incubation time 3 hours, hydrochloride, 500 µM): 102.5418 and 125.9215 and 67.1 and 33.04 and 31.45 and 38.59 and 68.88 and 42.19 and 58.38 and 49.61 and 46.3628 and 69.56 | cell viability ([5]; 500 μM (each drug), incubation time 4 hours, hydrochloride, 500 µM): 6.023 and 6.336 and 6.646 and 7.159 and 7.63 and 6.693 and 42.88 and 32.5727 and 25.11 | cell viability ([5]; 1000 μM (each drug), incubation time 2 hours, hydrochloride, 1000 µM): 96.31 and 83.65 and 82.62 and 98.19 and 107.1891 and 53.91 and 80.39 and 46.21 and 97.83 | cell viability ([5]; 1000 μM (each drug), incubation time 3 hours, hydrochloride, 1000 µM): 92.47 and 93.28 and 87.85 and 39.73 and 38.74 and 37.68 and 45.15 and 47.25 and 41.05 and 50.59 and 59.84 and 82.37 | cell viability ([5]; 1000 μM (each drug), incubation time 4 hours, hydrochloride, 1000 µM): 6.315 and 6.002 and 5.891 and 7.607 and 8.758 and 7.362 and 38.09 and 34.2 and 25.3 | PpIX vs highest doses of ALA or MAL (1000 μM) at 4 hours ([6]; A431, 250 μM, 2 hours incubation): produced more PpIX | PpIX levels vs other treatment parameters ([6]; A431, 1000 μM, four hours incubation): statistically significant higher PpIX levels than any other treatment parameters investigated | PpIX fluorescence ([6]; 500 μM (each drug), incubation time 2 hours, hydrochloride): 35.33 and 33.33 and 57.67 and 49.67 and 55.67 and 58.67 (2×) and 69.67 and 58.33 | PpIX fluorescence ([6]; 500 μM (each drug), incubation time 3 hours, hydrochloride): 59.33 and 67.33 and 62.33 and 114.33 (2×) and 109.33 and 119.67 and 139.67 and 118.67 | PpIX fluorescence ([6]; 500 μM (each drug), incubation time 4 hours, hydrochloride): 71.67 and 82.67 and 73.67 and 137.67 and 136.67 and 140.67 and 151.67 and 177.67 and 146.67 | PpIX fluorescence ([6]; 1000 μM (each drug), incubation time 2 hours, hydrochloride): 58.33 and 69.33 and 58.67 (2×) and 63.67 and 78.67 and 97.67 and 93.67 (2×) | PpIX fluorescence ([6]; 1000 μM (each drug), incubation time 3 hours, hydrochloride): 96.33 and 100.33 and 116.33 and 117.33 and 114.33 and 118.33 and 144.67 and 180.67 and 182.67 | PpIX fluorescence ([6]; 1000 μM (each drug), incubation time 4 hours, hydrochloride): 113.67 and 119.67 and 140.67 and 145.67 and 139.67 and 141.67 and 177.67 and 221.67 and 225.67

— patent publication US9346758B2, “Pyridinone compounds for use in photodynamic therapy” (UNIVERSITY OF EXETER, priority 2012, dated 2016)
